Key:
[1] = target: HT29 cytosolic GST (Homo sapiens, UniProt P09211); assay: Spectrophotometric GST activity analysis in HT29 cell extracts (CDNB/glutathione); assay type: biochemical; conditions: HT29 cell extract
Protocol: GST catalyzes the conjugation of CDNB with glutathione and results in a CDNB-glutathione product with a strong molar absorption at 340 nm. The change of absorption is monitored for 5 min.
1 x 10^6 cells are collected and washed once with ice-cold phosphate-buffered saline at 1000 rpm for 10 min at 4°C. Cell pellets are resuspended in 200 µl ice-cold phosphate-buffered saline, and are sonicated for 2 min on ice. The sonicate is then centrifuged at 11750 g, 4°C for 15 min in an Eppendorf Centrifuge, and the supernatant is assayed for GST activity.

[2] = tested on: MCF-7 cells; assay: Radiosensitizing activity assay, surviving cells counted by trypan blue staining; assay type: cell-based, Human
Protocol: (§1) Biological assay for radiosensitizing activity of MDM2 antagonistic compounds: Human tumor cell lines containing wild-type p53 and low levels of GST, such as MCF7 (breast carcinoma) or mutant p53 and a high GST content, such as MCF7 ADR (adriamycin-resistant breast carcinoma) are cultivated in RPMI medium, supplemented with 10% fetal calf serum to a semi-confluent state.
In order to determine the radiosensitizing activity of selected compounds on these cells a minimal toxic dose was determined as 2Gy (gray: J/kg) with a ^137Cesium source at room temperature. Following irradiation of monolayer cells in exponential growth phase with 2 Gy, cells were incubated with various concentrations of the selected compounds for 2-6 h. Cells were trypsinized and seeded in appropriate dilutions into 6 well plates. Surviving cells were trypsinized after 12-13 days and cell number was determined by staining with trypane blue for living/dead cells. The protocol was established according to Khil et al., 1996, Int. J. Rad. Oncol. Biol. Phys. 34, 375-380.

[3] = tested on: MCF-7 ADR cells; assay: as above; assay type: cell-based, Human; conditions: for radiosensitization: MCF-7 ADR cells (mutant p53, high GST content); for % living cells relative to control without drug treatment: MCF-7ADR
Protocol: as §1
In order to determine the radiosensitizing activity of selected compounds on these cells a minimal toxic dose was determined as 2Gy (gray: J/kg) with a ^137Cesium source at room temperature. […] Cells were trypsinized and seeded in appropriate dilutions into 6 well plates. Surviving cells were trypsinized after 12-13 days and cell number was determined by staining with trypane blue for living/dead cells. The protocol was established according to Khil et al., 1996, Int. J. Rad. Oncol. Biol. Phys. 34, 375-380.

[4] = target: T1, MDM2 (Homo sapiens, UniProt Q00987); assay: Interaction of compounds with MDM2; assay type: binding
T1 construct: 40 µl of mdm2 1-213 (100nM in PBST) were mixed with 40 µl of the sample; made in house
Protocol: BIACORE analysis of the interaction between MDM2 and p53: To quantify the effect of selected compounds on the p53 binding properties of MDM2 protein biosensor measurements using BIACORE 2000 are performed. BIACORE 2000 is a biosensor system delivered from BIACORE AB. The technology of this biosensor is based on the optical phenomenon of surface plasmon resonance (SRP), which detects changes in refractive index of the solution close to the surface of the sensor chip. The refractive index is directly correlated to the mass concentration in the layer and increases when analyte binds to a surface immobilized ligand. Experiments are performed under continuous flow conditions. The SPR response expressed in resonance units (RU) is recorded continuously versus time resulting in a sensorgram. When one interaction is completed, the surface can be regenerated using solutions which remove bound analyte without affecting the activity of the bound ligand. […] After additional 4 minutes rinsing the surface with PBST buffer, a signal was recorded. By comparing the signals of the samples with those of buffer, the inhibitory effects of the samples could be evaluated. […]

[5] = 2 Gy + drug 20 µg/ml, drug incubation time following irradiation 0 hours
[6] = 2 Gy + drug 20 µg/ml, drug incubation time following irradiation 2 hours
[7] = 2 Gy + drug 20 µg/ml, drug incubation time following irradiation 6 hours
[8] = drug alone 20 µg/ml, drug incubation time 0 hours
[9] = drug alone 20 µg/ml, drug incubation time 2 hours
[10] = drug alone 20 µg/ml, drug incubation time 6 hours

Chain of HT29 cytosolic GST (P09211 2-210): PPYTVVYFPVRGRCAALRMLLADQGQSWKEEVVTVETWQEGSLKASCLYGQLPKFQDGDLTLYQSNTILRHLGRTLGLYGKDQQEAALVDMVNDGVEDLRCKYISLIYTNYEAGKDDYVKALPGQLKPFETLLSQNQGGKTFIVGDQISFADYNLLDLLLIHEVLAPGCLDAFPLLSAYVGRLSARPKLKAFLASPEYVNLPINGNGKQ
T1 sequence (Q00987 1-213): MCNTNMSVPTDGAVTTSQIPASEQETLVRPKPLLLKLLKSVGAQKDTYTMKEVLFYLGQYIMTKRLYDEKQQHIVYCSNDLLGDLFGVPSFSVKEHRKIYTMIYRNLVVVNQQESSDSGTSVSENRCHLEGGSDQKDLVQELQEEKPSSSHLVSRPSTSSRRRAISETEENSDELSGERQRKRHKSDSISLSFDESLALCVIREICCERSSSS

| Compound | % living cells relative to control without drug treatment [2, 5] [%] | % living cells relative to control without drug treatment [2, 6] [%] | % living cells relative to control without drug treatment [2, 7] [%] | % living cells relative to control without drug treatment [2, 8] [%] | % living cells relative to control without drug treatment [2, 9] [%] | % living cells relative to control without drug treatment [2, 10] [%] | enhancement of irradiation by the drug (factor) ([2]; drug incubated for 2 hours) | enhancement of irradiation by the drug (factor) ([2]; drug incubated for 6 hours) | radiosensitization [3] | % living cells relative to control without drug treatment [3, 5] [%] | % living cells relative to control without drug treatment [3, 6] [%] | % living cells relative to control without drug treatment [3, 7] [%] | % living cells relative to control without drug treatment [3, 8] [%] | % living cells relative to control without drug treatment [3, 9] [%] | % living cells relative to control without drug treatment [3, 10] [%] | also measured |
| --- | --- | --- | --- | --- | --- | --- | --- | --- | --- | --- | --- | --- | --- | --- | --- | --- |
| O=C(O)COc1ccc(C(=O)/C=C/c2ccc(Cl)c(Cl)c2)cc1 [LSM 83177, 3,4-dichloro-4'-(carboxymethoxy)chalcone] | 100 | 41.8 | 17 | 100 | 64.1 | 36.4 | 1.5 | 2 | Radiosensitizing activity independent of the GST content of the target cell can be observed | 100 | 72.8 | 48.8 | 100 | 87.2 | 85.7 | activity at 0.2 µg/mL ([1]; concentration 0,2 µg/ml): 100%; activity at 0.04 µg/mL ([1]; concentration 0,04 µg/ml): 100%; activity at 0.4 µg/mL ([1]; concentration 0,4 µg/ml): 100%; activity at 1 µg/mL ([1]; concentration 1 µg/ml): 100%; activity at 2 µg/mL ([1]; concentration 2 µg/ml): 100%; activity at 5 µg/mL ([1]; concentration 5 µg/ml): 73%; activity at 8 µg/mL ([1]; concentration 8 µg/ml): 46%; activity at 10 µg/mL ([1]; concentration 10 µg/ml): 26%; activity at 20 µg/mL ([1]; concentration 20 µg/ml): 0%; activity at 1.3 µg/mL ([1]; concentration 1,3 µg/ml): 100%; activity at 2.5 µg/mL ([1]; concentration 2,5 µg/ml): 95% |
| C=C(CC)C(=O)c1ccc(OCC(=O)O)c(Cl)c1Cl [ethacrynic acid, reference compound] | 100 | 42.7 | 20.5 | 100 | 52.3 | 43.1 | 1.5 | 2 | does not mediate any radiosensitization | 100 | 82.5 | 133.6 | 100 | 88.9 | 99 | interaction with MDM2 [4]: interaction of ethacrynic acid with MDM2 was surprisingly observed |

Source: patent EP0947494A1, “Derivatives of phenoxy acetic acid and phenoxymethyltetrazole having antitumor activity” (F. HOFFMANN-LA ROCHE AG, priority 1998, dated 1999)
